Source: US11890288B2, “Sulfonamide or sulfinamide compound having effect of inducing BRD4 protein degradation and pharmaceutical use thereof” (MITSUBISHI TANABE PHARMA CORPORATION, priority 2020, dated 2024)

Tests used:
[1] = system: human prostate cancer LNCaP cells; assay: Cytotoxic action on LNCaP cells (WST-8, 96 hr); type: cell-based; conditions: 96 hr culture
In short: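 IC50 values reflect 50% cell survival relative to untreated cells, interpolated linearly between the two concentrations that bracket it. Survival was read by WST-8 after 96 hr of compound treatment of cells grown in 10% FBS/RPMI1640 at 37° C.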

BRD4 protein = BRD4 protein (Homo sapiens (Human), UniProt O60885); assay: BRD4 protein degradation inducing action in LNCaP cells (immunofluorescence, 6 hr); type: cell-based; conditions: anti-BRD4 fluorescence intensity
In short: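 LNCaP cells in 10% FBS/RPMI1640 exposed to compound for 6 hr, fixed, permeabilized and immunostained for BRD4 with Alexa Fluor 546 secondary; fluorescence (ex 560, em 572 nm) read by imaging. DC50 = concentration giving 50% of untreated signal, interpolated linearly between the two bracketing points.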

CCc1ccc(NS(=O)(=O)c2ccc(CCNC(=O)c3ccc(-c4ccc(C5=N[C@@H](CC(=O)OC)c6nnc(C)n6-c6sc(C)c(C)c65)cc4)cn3)cc2)c2[nH]cc(C#N)c12 [Example 110, methyl [(6S)-4-(4-{6-[(2-{4-[(3-cyano-4-ethyl-1H-indol-7-yl)sulfamoyl]phenyl}ethyl)carbamoyl]pyridin-3-yl}phenyl)-2,3,9-trimethyl-6H-thieno[3,2-f][1,2,4]triazolo[4,3-a][1,4]diazepin-6-yl]acetate]
IC50 [1]: 0.28 nM | DC50 (BRD4 protein): 0.063 nM

CCc1ccc(NS(=O)(=O)c2ccc(CNC(=O)c3ccc(-c4ccc(C5=N[C@@H](CC(=O)OC)c6nnc(C)n6-c6sc(C)c(C)c65)cc4)cc3F)cc2)c2[nH]cc(C#N)c12 [Example 112, methyl [(6S)-4-{4′-[({4-[(3-cyano-4-ethyl-1H-indol-7-yl)sulfamoyl]phenyl}methyl)carbamoyl]-3′-fluoro[1,1′-biphenyl]-4-yl}-2,3,9-trimethyl-6H-thieno[3,2-f][1,2,4]triazolo[4,3-a][1,4]diazepin-6-yl]acetate]
IC50 [1]: 0.44 nM | DC50 (BRD4 protein): 0.25 nM

CCc1ccc(NS(=O)(=O)c2ccc(CNC(=O)c3ccc(-c4ccc(C5=N[C@@H](CC(=O)OC)c6nnc(C)n6-c6sc(C)c(C)c65)cc4)cc3Cl)cc2)c2[nH]cc(C#N)c12 [Example 113, methyl [(6S)-4-{3′-chloro-4′-[({4-[(3-cyano-4-ethyl-1H-indol-7-yl)sulfamoyl]phenyl}methyl)carbamoyl][1,1′-biphenyl]-4-yl}-2,3,9-trimethyl-6H-thieno[3,2-f][1,2,4]triazolo[4,3-a][1,4]diazepin-6-yl]acetate]
IC50 [1]: 0.3 nM | DC50 (BRD4 protein): 0.33 nM

CCc1ccc(NS(=O)(=O)c2ccc(CNC(=O)c3ccc(-c4ccc(C5=N[C@@H](CC(=O)OC)c6nnc(C)n6-c6sc(C)c(C)c65)cc4)cc3C)cc2)c2[nH]cc(C#N)c12 [Example Compound 114, methyl [(6S)-4-{4′-[({4-[(3-cyano-4-ethyl-1H-indol-7-yl)sulfamoyl]phenyl}methyl)carbamoyl]-3′-methyl[1,1′-biphenyl]-4-yl}-2,3,9-trimethyl-6H-thieno[3,2-f][1,2,4]triazolo[4,3-a][1,4]diazepin-6-yl]acetate]
IC50 [1]: 0.34 nM | DC50 (BRD4 protein): 0.28 nM

CCc1ccc(NS(=O)(=O)c2ccc(CNC(=O)c3ccc(-c4ccc(C5=N[C@@H](CC(=O)OC)c6nnc(C)n6-c6sc(C)c(C)c65)cc4)c(F)c3)cc2)c2[nH]cc(C#N)c12 [Example Compound 115, methyl [(6S)-4-{4′-[({4-[(3-cyano-4-ethyl-1H-indol-7-yl)sulfamoyl]phenyl}methyl)carbamoyl]-2′-fluoro[1,1′-biphenyl]-4-yl}-2,3,9-trimethyl-6H-thieno[3,2-f][1,2,4]triazolo[4,3-a][1,4]diazepin-6-yl]acetate]
IC50 [1]: 0.32 nM | DC50 (BRD4 protein): 0.13 nM

CCc1ccc(NS(=O)(=O)c2ccc(CNC(=O)c3ccc(-c4ccc(C5=N[C@@H](CC(=O)OC)c6nnc(C)n6-c6sc(C)c(C)c65)cc4)c(Cl)c3)cc2)c2[nH]cc(C#N)c12 [Example Compound 116, methyl [(6S)-4-{2′-chloro-4′-[({4-[(3-cyano-4-ethyl-1H-indol-7-yl)sulfamoyl]phenyl}methyl)carbamoyl][1,1′-biphenyl]-4-yl}-2,3,9-trimethyl-6H-thieno[3,2-f][1,2,4]triazolo[4,3-a][1,4]diazepin-6-yl]acetate]
IC50 [1]: 0.65 nM | DC50 (BRD4 protein): 0.42 nM

CCc1ccc(NS(=O)(=O)c2ccc(CNC(=O)c3ccc(-c4ccc(C5=N[C@@H](CC(=O)OC)c6nnc(C)n6-c6sc(C)c(C)c65)cc4)c(C)c3)cc2)c2[nH]cc(C#N)c12 [Example Compound 117, methyl [(6S)-4-{4′-[({4-[(3-cyano-4-ethyl-1H-indol-7-yl)sulfamoyl]phenyl}methyl)carbamoyl]-2′-methyl[1,1′-biphenyl]-4-yl}-2,3,9-trimethyl-6H-thieno[3,2-f][1,2,4]triazolo[4,3-a][1,4]diazepin-6-yl]acetate]
IC50 [1]: 0.41 nM | DC50 (BRD4 protein): 0.16 nM

CCc1ccc(NS(=O)(=O)c2ccc(CNC(=O)c3ccc(-c4ccc(C5=N[C@@H](CC(=O)OC)c6nnc(C)n6-c6sc(C)c(C)c65)cc4)c(F)c3F)cc2)c2[nH]cc(C#N)c12 [Example Compound 118, methyl [(6S)-4-{4′-[({4-[(3-cyano-4-ethyl-1H-indol-7-yl)sulfamoyl]phenyl}methyl)carbamoyl]-2′,3′-difluoro[1,1′-biphenyl]-4-yl}-2,3,9-trimethyl-6H-thieno[3,2-f][1,2,4]triazolo[4,3-a][1,4]diazepin-6-yl]acetate]
IC50 [1]: 0.32 nM | DC50 (BRD4 protein): 0.14 nM

CCc1ccc(NS(=O)(=O)c2ccc(CNC(=O)c3cc(F)c(-c4ccc(C5=N[C@@H](CC(=O)OC)c6nnc(C)n6-c6sc(C)c(C)c65)cc4)cc3F)cc2)c2[nH]cc(C#N)c12 [Example Compound 119, methyl [(6S)-4-{4′-[({4-[(3-cyano-4-ethyl-1H-indol-7-yl)sulfamoyl]phenyl}methyl)carbamoyl]-2′,5′-difluoro[1,1′-biphenyl]-4-yl}-2,3,9-trimethyl-6H-thieno[3,2-f][1,2,4]triazolo[4,3-a][1,4]diazepin-6-yl]acetate]
IC50 [1]: 0.45 nM | DC50 (BRD4 protein): 0.27 nM

CCc1ccc(NS(=O)(=O)c2ccc(CNC(=O)c3cc(F)c(-c4ccc(C5=N[C@@H](CC(=O)OC)c6nnc(C)n6-c6sc(C)c(C)c65)cc4)cc3C)cc2)c2[nH]cc(C#N)c12 [Example Compound 120, methyl [(6S)-4-{4′-[({4-[(3-cyano-4-ethyl-1H-indol-7-yl)sulfamoyl]phenyl}methyl)carbamoyl]-2′-fluoro-5′-methyl[1,1′-biphenyl]-4-yl}-2,3,9-trimethyl-6H-thieno[3,2-f][1,2,4]triazolo[4,3-a][1,4]diazepin-6-yl]acetate]
IC50 [1]: 0.41 nM | DC50 (BRD4 protein): 0.26 nM

CCc1ccc(NS(=O)(=O)c2ccc([C@@H](C)NC(=O)c3ccc(-c4ccc(C5=N[C@@H](CC(=O)OC)c6nnc(C)n6-c6sc(C)c(C)c65)cc4)c(F)c3)cc2)c2[nH]cc(C#N)c12 [Example Compound 121, methyl [(6S)-4-(4′-{[(1R)-1-{4-[(3-cyano-4-ethyl-1H-indol-7-yl)sulfamoyl]phenyl}ethyl]carbamoyl}-2′-fluoro[1,1′-biphenyl]-4-yl)-2,3,9-trimethyl-6H-thieno[3,2-f][1,2,4]triazolo[4,3-a][1,4]diazepin-6-yl]acetate]
IC50 [1]: 0.22 nM | DC50 (BRD4 protein): 0.17 nM

CCc1ccc(NS(=O)(=O)c2ccc([C@@H](C)NC(=O)c3ccc(-c4ccc(C5=N[C@@H](CC(=O)OC)c6nnc(C)n6-c6sc(C)c(C)c65)cc4)c(F)c3F)cc2)c2[nH]cc(C#N)c12 [Example Compound 122, methyl [(6S)-4-(4′-{[(1R)-1-{4-[(3-cyano-4-ethyl-1H-indol-7-yl)sulfamoyl]phenyl}ethyl]carbamoyl}-2′,3′-difluoro[1,1′-biphenyl]-4-yl)-2,3,9-trimethyl-6H-thieno[3,2-f][1,2,4]triazolo[4,3-a][1,4]diazepin-6-yl]acetate]
IC50 [1]: 0.39 nM | DC50 (BRD4 protein): 0.14 nM
